We go through 1 compound from patent publication US20240189305A1, “THERAPEUTIC AGENT FOR CORONAVIRUS INFECTION” (FUJIFILM TOYAMA CHEMICAL CO., LTD., priority 2021, published 2024).

This experiment deals with SARS-CoV-2. The experiment is described as follows: Test example 1: placebo-controlled, stratified-randomized, multicenter, double-blind phase 3 study in COVID-19 patients with a risk factor for disease progression at an early stage after onset. In kind it is in vivo. The conditions noted are these: patients 50 years or older, onset within 72 hours; oral 1,800 mg twice/day for 1 day + 800 mg twice/day for 9 days.

The structures appear in SMILES notation.

For `NC(=O)c1nc(F)cnc1O` [Compound A, 6-fluoro-3-hydroxy-2-pyrazinecarboxamide], the “therapeutic effect by primary endpoint (proportion of patients with disease progression up to Day 28) and/or secondary endpoints versus placebo” value is recorded as “therapeutic effect is higher in the Compound A group than in the placebo group”.
